Measurements published in publication PMC12867150, “A fungi-derived cyclic peptide enhances Th9-mediated antitumor immunity by targeting ZAP70 and SREBP1” (The Journal of Clinical Investigation, 2025).
Values joined by “and” are separate entries in the source; they are usually repeats but may differ in a detail not shown here. Identical values can stand only once.

Columns and labels:
Th1 cells = experiment: Th1 polarization, IFN-γ by flow cytometry (Figure 1F); type: cell-based, mouse
Description: Naive CD4^+ T cells were isolated from the spleens of C57BL/6J or CD45.1^+ OT-II mice using the MojoSort Mouse CD4 Naive T Cell Isolation Kit (BioLegend, catalog 480040), following the manufacturer’s protocol. Purified cells were cultured in RPMI-1640 medium supplemented with 10% FBS, 1% penicillin-streptomycin, and 0.1% β-mercaptoethanol (Gibco, catalog 21985023).
T cell polarization was initiated under plate-bound anti-CD3 (2 μg/mL, clone 17A2, BioXCell, catalog BE0002) and soluble anti-CD28 (1 μg/mL, clone 37.51, BioXCell, catalog BE0015-1) stimulation, with the addition of cytokines and neutralizing antibodies specific to each subset. For Th9 cells, these included IL-4 (10 ng/mL, Peprotech, catalog 400-04), TGF-β (1 ng/mL, EPOTO Biotech, catalog HF-2021), anti–IL-12 (5 μg/mL, clone C17.8, BioXCell, catalog BE0051), and anti–IFN-γ (10 μg/mL, clone XMG1.2, BioXCell, catalog BE0055); for Th1 cells, these included IL-12 (10 ng/mL, GenScript, catalog Z03211-50) and anti–IL-4 (5 μg/mL, clone 11B11, BioXCell, catalog BE0045); for Th2 cells, these included IL-4 (50 ng/mL), anti–IFN-γ (20 μg /mL), anti–IL-12 (5 μg/mL), Th17 cells: IL-6 (20 ng/mL, EPOTO Biotech, catalog MF-1006), TGF-β (1 ng/mL), IL-1β (10 ng/mL, Peprotech, catalog AF-211-11B), anti–IFN-γ (10 μg/mL), anti–IL-12 (5 μg/mL), and anti–IL-4 (5 μg/mL); and for Tregs, these included TGF-β (3 ng/mL). […]

IL-6 = experiment: Serum IL-6 by ELISA after ACT (S1B); type: in vivo, mouse; details: for IL-6 of blood from mouse: Supplemental Figure 1B
Description: Peripheral blood was collected from mouse tail veins at predefined time points in the tumor model. Samples were allowed to clot at 4°C for 1 hour and were then centrifuged at 600g for 25 minutes to obtain serum. Serum IL-6 levels were measured using an ELISA kit (Invitrogen; catalog 88-7064) according to the manufacturer’s instructions.
Days after ACT Days after ACT
Figure S1. EpA enhances immune responses. […]
Serum IL-6 levels after ACT, measured by ELISA on days 5, 10, 15, and 20. (C–E) […]
Statistical analysis was performed using two-way ANOVA with Tukey’s post hoc test (A), one-way ANOVA with Tukey’s post hoc test (B) or two-tailed unpaired Student’s t-test (D and G–M). ns, not significant. *p < 0.05, **p < 0.01, ****p < 0.0001.
(also on this page, place not known: Mouse weight (g) CtrlEpA CtrlEpA CtrlEpA0 I CD45.1+ T cells (%) CtrlEpA CD4+ T cells (%) CtrlEpA CtrlEpA CtrlEpA FSC CD8 CD8 FSC FSC FSC BNumber of CD45.1+ T cells (×103 per mgĎ Number of CD4+ T cells (×104 per mgĎ DC (%)NK cells (%) NK cells (%) DC (%) Number of DC (×103 per mg) Number of NK cells (×105) Number of NK cells (×103 per mg) Number of DC (×105) FSC FSC FSC CD8 CtrlEpA CtrlEpA CtrlEpA CD8+ T cells (%) Number of CD8+ T cells (×104 per mgĎ nsns ns nsns ns 40 IL-6 (pg/ml))

anteiso-C15 Leu7 surfactin [EpA]
IFN-γ expression under Th1 polarization (Th1 cells; EpA 10 μM, individual replicates, n = 4): 80 and 84.2 and 74.8 and 80.3
effect on Th1 polarization (Th1 cells; result in words): did not affect
IL-6 of blood from mouse (IL-6; Day5, replicate 1): 26.4444 pg/mL
IL-6 of blood from mouse (IL-6; Day5, replicate 2): 18 pg/mL
IL-6 of blood from mouse (IL-6; Day5, replicate 3): 22.6667 pg/mL
IL-6 of blood from mouse (IL-6; Day5, replicate 4): 28 pg/mL
IL-6 of blood from mouse (IL-6; Day10, replicate 1): 22.6667 pg/mL
IL-6 of blood from mouse (IL-6; Day10, replicate 2): 21.3333 pg/mL
IL-6 of blood from mouse (IL-6; Day10, replicate 3): 24.2222 pg/mL
IL-6 of blood from mouse (IL-6; Day10, replicate 4): 22 pg/mL
IL-6 of blood from mouse (IL-6; Day15, replicate 1): 19.5556 pg/mL
IL-6 of blood from mouse (IL-6; Day15, replicate 2): 16 pg/mL
IL-6 of blood from mouse (IL-6; Day15, replicate 3): 11.3333 pg/mL
IL-6 of blood from mouse (IL-6; Day15, replicate 4): 20 pg/mL
IL-6 of blood from mouse (IL-6; Day20, replicate 1): 21.7778 pg/mL
IL-6 of blood from mouse (IL-6; Day20, replicate 2): 14.8889 pg/mL
IL-6 of blood from mouse (IL-6; Day20, replicate 3): 14.4445 pg/mL
IL-6 of blood from mouse (IL-6; Day20, replicate 4): 26.8889 pg/mL
serum IL-6 levels (IL-6; EpA-Th9 therapy vs control, result in words): No significant differences
